Results on 15 molecules are retold here after EPA's ToxValDB 9.5.

Data set [1] deals with Rattus norvegicus. Conditions: M/F.
The test system of data set [2] is Rattus norvegicus. Conditions: oral.
In data set [3] the test system is Mus musculus. Conditions: hepatic; for LOAEL: chronic, duration: 6 months, inhalation, F.
In data set [4] the test system is Rattus norvegicus. Conditions: oral. The source holds these as a separate data set.
The subject of data set [5] is Mus musculus. Conditions: reproduction developmental; oral; drinking water; F; Nod/Shilt; generation: F1; F1: Endocrine: Blood: Glucose (GLU) + F1: Endocrine: Multiple Organs: Diabetes + F1: Endocrine: Pancreas: Insulitis.
In data set [6] the test system is Rattus norvegicus. Conditions: oral, gavage, Crl:CD(SD).
Where [7] appears, read: reproduction developmental, oral, reduced fertility in the F1/F2b generation + Reduced relative kidney weights in F0, F1, and F2b adults.
The mark [8] stands for this setting: subchronic, oral, renal and hepatotoxicity.
Where [9] appears, read: short-term, inhalation, degeneration of olfactory epithelium.
[10] abbreviates: subchronic, oral, myocardial degeneration, hepatotoxicity and nephrotoxicity.
The mark [11] stands for this setting: chronic, duration: 2 years, inhalation, no effects.
The mark [12] stands for this setting: chronic, duration: 2 years, oral, diet, decreased body weight gain increased plantar ulcer (females).
Where [13] appears, read: chronic, duration: 2 years, oral, diet, reduced body weight.
The mark [14] stands for this setting: reproduction developmental, oral, drinking water, neurodevelopmental effects.
Where [15] appears, read: subchronic, oral, gavage, hepatic lesions.
[16] abbreviates: developmental, inhalation, reduced pup weight in the f1 and f2 generations.
Setting [17] is: developmental, duration: 46 days, gavage, F, Developmental: Decreased body weight in pups on PNDs 0 and 4 (13-19% in males and 12-16% in females).
[18] abbreviates: subchronic, duration: 46 days, gavage, M/F, Body Weight: Decreased body weight (~10%) in males during exposure and recovery and in satellite females during dosing (~23% on day 40) and ….
The mark [19] stands for this setting: developmental, F, generation: F1, F1: Developmental: Whole Body: Pup Weight Relative to Litter (PND 0) + F1: Developmental: Whole Body: Pup Weight Relative to Litter (PND 4).
The mark [20] stands for this setting: developmental, M/F, generation: F1, F1: Developmental: Whole Body: Live Birth Index + F1: Developmental: Whole Body: Live Pups Born + F1: Developmental: Whole Body: No. Live ….
Where [21] appears, read: developmental, M, generation: F1, F1: Developmental: Whole Body: Pup Weight Relative to Litter (PND 0) + F1: Developmental: Whole Body: Pup Weight Relative to Litter (PND 4).
Setting [22] is: reproduction developmental, duration: 42 days, M, generation: P0, P0: Blood: Albumin/Globulin (A/G) Ratio + P0: Liver: Cholesterol (CHOL), Total, Blood + P0: Liver: Hepatocellular Hypertrophy + P0: Liver: ….
Where [23] appears, read: reproduction developmental, duration: 46 days, F, generation: F1, F1: Whole Body: Pup Weight Relative to Litter (PND 0) + F1: Whole Body: Pup Weight Relative to Litter (PND 4).
The mark [24] stands for this setting: reproduction developmental, duration: 46 days, F, generation: P0, P0: Liver: Cholesterol (CHOL), Total, Blood + P0: Liver: Phospholipid.
Where [25] appears, read: reproduction developmental, duration: 46 days, M, generation: F1, F1: Whole Body: Pup Weight Relative to Litter (PND 0) + F1: Whole Body: Pup Weight Relative to Litter (PND 4).
[26] abbreviates: reproduction developmental, F, generation: P0, P0: Developmental: Uterus: Implantation + P0: Developmental: Uterus: Implantation Index + P0: Hepatic: Blood: Albumin/Globulin (A/G) Ratio….
Where [27] appears, read: reproduction developmental, F, generation: P0, P0: General Toxicity: Whole Body: Clinical Observations + P0: General Toxicity: Whole Body: Maternal Body Weight Change + P0: Other Systems….
[28] abbreviates: reproduction developmental, M, generation: P0, P0: General Toxicity: Whole Body: Body Weight Change + P0: General Toxicity: Whole Body: Clinical Observations + P0: Other Systems: Bone: ….
Where [29] appears, read: reproduction developmental, M, generation: P0, P0: Hepatic: Blood: Albumin/Globulin (A/G) Ratio + P0: Hepatic: Liver: Alanine Aminotransferase (ALT) + P0: Hepatic: Liver: Albumin (A) + P0….

Values joined by “and” are separate entries in the source; they are usually repeats but may differ in a detail not shown here. Identical values can stand only once.

Take `COC(=O)C(C)Oc1ccc(Oc2ncc(C(F)(F)F)cc2Cl)cc1` (centres undefined) [Haloxyfop-methyl]: in the data set on Rattus norvegicus [1] (setting [7]), the LEL was 0.05 mg/kg-day and the NOEL worked out at 0.005 mg/kg-day.
In general, LOAEL refers to the lowest dose or exposure tested at which an adverse effect was seen. The NOAEL is the highest tested level that showed no adverse finding. In the data set on Rattus norvegicus [1] (setting [8]), `C#CCO` [Propargyl alcohol] displayed an LOAEL of 15 mg/kg-day and a no observed adverse effect level (NOAEL) of 5 mg/kg-day.
As to `CC=O` [Acetaldehyde], the NOAEL came to 125 mg/kg-day with Rattus norvegicus [2] (short-term, duration: 28 days, drinking water, M/F, Wistar, Food Consumption: decrease + Water Consumption: decrease + Blood Chemistry: BUN increase, T-Bil decrease, ALT decrease, ALP decrease + …) and 273 mg/m3 with Rattus norvegicus [1] (setting [9]). In the data set on Rattus norvegicus [1] (setting [9]), this molecule registered an LOAEL of 728 mg/m3.
Take `OCC(Cl)CCl` (centres undefined) [2,3-Dichloro-1-propanol]: in the data set on Rattus norvegicus [1] (setting [10]), the LOAEL is 35 mg/kg-day and the NOAEL was 10 mg/kg-day.
In the data set with Rattus norvegicus [1] (chronic, duration: 2 years, oral, diet, cholinesterase inhibition, optic nerve degeneration), `CCOP(=O)(OCC)SCCSCC.CCOP(=S)(OCC)OCCSCC` [Demeton] gave an LEL of 0.04 mg/kg-day.
Consider `CC(F)(F)Cl` [1-Chloro-1,1-difluoroethane], for which the no-observed-adverse-effect level (NOAEL) in the data set with Rattus norvegicus [1] (setting [11]) came to 82600 mg/m3.
For `CC(C)C(Nc1ccc(C(F)(F)F)cc1Cl)C(=O)OC(C#N)c1cccc(Oc2ccccc2)c1` (centres undefined) [Fluvalinate], in the data set with Rattus norvegicus [1] (setting [12]), the LEL was found to be 2.5 mg/kg-day and the NOEL is 1 mg/kg-day.
For the molecule `NN` [Hydrazine], the LOAEL with Mus musculus [3] (ICR) is 0.262 mg/m3.
As to `COc1nc(C)nc(NC(=O)NS(=O)(=O)c2ccccc2Cl)n1` [Chlorsulfuron], in the data set on Rattus norvegicus [1] (setting [13]), the LEL was 25 mg/kg-day and the NOEL was 5 mg/kg-day.
In turn, `[O-][Cl+][O-]` [Chlorite] yielded an NOAEL in the data set with Rattus norvegicus [4] (developmental, duration: 16 weeks, drinking water, M/F, Sprague-Dawley, developmental) of 2.9 mg/kg-day. In the data set on Rattus norvegicus [1] (setting [14]), this molecule returned an LOAEL of 6 mg/kg-day and a no-observed-adverse-effect level (NOAEL) of 3 mg/kg-day.
Turning to `BrC(Br)Br` [Bromoform], the NOAEL came to 72 mg/kg-day with Mus musculus [3] (short-term, duration: 14 days, oral, gavage, M, CD1) and 25 mg/kg-day with Rattus norvegicus [4] (subchronic, duration: 13 weeks, gavage, M/F, Fischer 344, hepatic). Further, the LOAEL was 100 mg/kg-day with Rattus norvegicus [4] (chronic, duration: 103 weeks, gavage, M/F, Fischer 344, hepatic) and 50 mg/kg-day in the data set with Rattus norvegicus [1] (setting [15]). For the same molecule, the NOEL in the data set on Rattus norvegicus [1] (setting [15]) is 25 mg/kg-day and 17.9 mg/kg-day.
In the data set with Rattus norvegicus [1] (setting [16]), `C1CCCCC1` [Cyclohexane] displayed an LOAEL of 24100 mg/m3 and an NOAEL of 6890 mg/m3.
For the molecule `O=C(O)C(F)(F)C(F)(F)C(F)(F)C(F)(F)C(F)(F)C(F)(F)C(F)(F)C(F)(F)C(F)(F)C(F)(F)F` [Perfluoroundecanoic acid], the LOAEL in the data set on Rattus norvegicus [4] (setting [17]) came out at 1 mg/kg-day; in the data set with Rattus norvegicus [4] (setting [18]), 1 mg/kg-day; in the data set on Mus musculus [5], 0.042 mg/kg-day; with Rattus norvegicus [6] (setting [19]) it was 0.3 mg/kg-day; with Rattus norvegicus [6] (setting [20]), 0.3 mg/kg-day; with Rattus norvegicus [6] (setting [21]), 0.3 mg/kg-day. Also, the LOAEL with Rattus norvegicus [6] (reproduction developmental, F, generation: P0, P0: Cardiovascular: Heart: Heart Histopathology + P0: Cardiovascular: Heart: Heart Weight, Absolute + P0: Cardiovascular: Heart: Heart …) is 0.3 mg/kg-day; in the data set with Rattus norvegicus [6] (setting [26]), 0.3 mg/kg-day; with Rattus norvegicus [6] (setting [27]), 1 mg/kg-day; with Rattus norvegicus [6] (reproduction developmental, M, generation: P0, P0: Cardiovascular: Heart: Heart Histopathology + P0: Cardiovascular: Heart: Heart Weight, Absolute + P0: Cardiovascular: Heart: Heart …), 0.3 mg/kg-day; in the data set on Rattus norvegicus [6] (setting [28]), 1 mg/kg-day; in the data set with Rattus norvegicus [6] (setting [29]), 0.3 mg/kg-day. In addition, the NOAEL came out at 0.3 mg/kg-day in the data set with Rattus norvegicus [4] (setting [17]); 0.3 mg/kg-day in the data set on Rattus norvegicus [4] (setting [18]); 1 mg/kg-day in the data set on Rattus norvegicus [4] (subchronic, duration: 46 days, gavage, M/F, Hepatic: Increased absolute and relative liver weight and centrilobular hypertrophy at 1.0 mg/kg/day); 0.004 mg/kg-day with Mus musculus [5]; 0.1 mg/kg-day in the data set on Rattus norvegicus [6] (setting [19]); 0.1 mg/kg-day in the data set on Rattus norvegicus [6] (setting [20]). For the same molecule, the no observed adverse effect level (NOAEL) with Rattus norvegicus [6] (setting [21]) was 0.1 mg/kg-day; in the data set on Rattus norvegicus [6] (setting [26]), 0.1 mg/kg-day; with Rattus norvegicus [6] (setting [27]), 0.3 mg/kg-day; in the data set with Rattus norvegicus [6] (setting [28]) it was 0.3 mg/kg-day; in the data set with Rattus norvegicus [6] (setting [29]), 0.1 mg/kg-day. Besides, in the data set on Rattus norvegicus [2] (subchronic, gavage, M, Sprague-Dawley, Body Weight Changes: Body weight gain decrease + Hematology: Fibrinogen decrease + Blood Chemistry: BUN increase, ALP increase, TP decrease…), the NOEL was found to be 0.1 mg/kg-day. Also, the NEL was 1 mg/kg-day in the data set on Rattus norvegicus [6] (reproduction developmental, duration: 42 days, M, generation: P0, P0: Adrenal: Adrenal Gland Histopathology + P0: Adrenal: Adrenal Gland Weight, Absolute + P0: Adrenal: Adrenal Gland Weight, Relative + P0: …); 0.3 mg/kg-day in the data set on Rattus norvegicus [6] (reproduction developmental, duration: 42 days, M, generation: P0, P0: Blood: Activated Partial Thromboplastin Time (APTT) + P0: Blood: Calcium (CA), Blood + P0: Blood: Fibrinogen + P0: Blood: Mean …); 0.1 mg/kg-day in the data set with Rattus norvegicus [6] (setting [22]); 0.3 mg/kg-day in the data set on Rattus norvegicus [6] (setting [23]); 1 mg/kg-day in the data set with Rattus norvegicus [6] (reproduction developmental, duration: 46 days, F, generation: P0, P0: Adrenal: Adrenal Gland Histopathology + P0: Adrenal: Adrenal Gland Weight, Absolute + P0: Adrenal: Adrenal Gland Weight, Relative + P0: …); 0.3 mg/kg-day in the data set with Rattus norvegicus [6] (reproduction developmental, duration: 46 days, F, generation: P0, P0: Blood: Fibrinogen + P0: Blood: Mean Corpuscular Hemoglobin (MCH) + P0: Blood: Mean Corpuscular Volume (MCV) + P0: Kidney: Blood Urea …). The NEL in the data set on Rattus norvegicus [6] (setting [24]) worked out at 0.1 mg/kg-day; in the data set with Rattus norvegicus [6] (reproduction developmental, duration: 46 days, M/F, generation: F1, F1: Whole Body: Live Birth Index + F1: Whole Body: Live pups (PND 4) + F1: Whole Body: Live Pups Born + F1: Whole Body: Male Pups per Pups …) it was 1 mg/kg-day; in the data set with Rattus norvegicus [6] (setting [25]), 0.3 mg/kg-day. Further, the LEL with Rattus norvegicus [6] (reproduction developmental, duration: 42 days, M, generation: P0, P0: Adrenal: Adrenal Gland Weight, Absolute, Recovery + P0: Blood: Activated Partial Thromboplastin Time (APTT) + P0: Blood: Calcium (CA), …) is 1 mg/kg-day; in the data set with Rattus norvegicus [6] (setting [22]) it was 0.3 mg/kg-day; in the data set on Rattus norvegicus [6] (reproduction developmental, duration: 42 days, M, generation: P0, P0: Blood: Platelets (PLT)), 0.1 mg/kg-day; in the data set on Rattus norvegicus [6] (setting [23]), 1 mg/kg-day; in the data set with Rattus norvegicus [6] (reproduction developmental, duration: 46 days, F, generation: P0, P0: Adrenal: Adrenal Gland Weight, Absolute, Recovery + P0: Blood: Fibrinogen + P0: Blood: Mean Corpuscular Hemoglobin (MCH) + P0: Blood: …), 1 mg/kg-day; in the data set with Rattus norvegicus [6] (reproduction developmental, duration: 46 days, F, generation: P0, P0: Blood: Total Protein (TP), Blood + P0: Thymus: Thymus Histopathology) it was 0.1 mg/kg-day. In addition, the LEL is 0.3 mg/kg-day in the data set on Rattus norvegicus [6] (setting [24]) and 1 mg/kg-day in the data set on Rattus norvegicus [6] (setting [25]).
In turn, `CC(F)F` [1,1-Difluoroethane] gave an NOAEL with Rattus norvegicus [1] (setting [11]) of 67500 mg/m3.
In turn, `CN(C)N` [1,1-Dimethylhydrazine] gave an LOAEL in the data set with Mus musculus [3] (C57BL/6) of 0.123 mg/m3.
